Among the data in BindingDB's records for doi:10.1016/j.ejmech.2018.08.073 (Indian Csir-Central Drug Research Institute, 2018) are IC50 values, retold here.

As usually defined, the IC50 is the concentration that gives 50% inhibition.

The test has as its target T1, Histone deacetylase 6 (Homo sapiens, UniProt Q9UBN7).
T1 sequence (Q9UBN7 whole entry): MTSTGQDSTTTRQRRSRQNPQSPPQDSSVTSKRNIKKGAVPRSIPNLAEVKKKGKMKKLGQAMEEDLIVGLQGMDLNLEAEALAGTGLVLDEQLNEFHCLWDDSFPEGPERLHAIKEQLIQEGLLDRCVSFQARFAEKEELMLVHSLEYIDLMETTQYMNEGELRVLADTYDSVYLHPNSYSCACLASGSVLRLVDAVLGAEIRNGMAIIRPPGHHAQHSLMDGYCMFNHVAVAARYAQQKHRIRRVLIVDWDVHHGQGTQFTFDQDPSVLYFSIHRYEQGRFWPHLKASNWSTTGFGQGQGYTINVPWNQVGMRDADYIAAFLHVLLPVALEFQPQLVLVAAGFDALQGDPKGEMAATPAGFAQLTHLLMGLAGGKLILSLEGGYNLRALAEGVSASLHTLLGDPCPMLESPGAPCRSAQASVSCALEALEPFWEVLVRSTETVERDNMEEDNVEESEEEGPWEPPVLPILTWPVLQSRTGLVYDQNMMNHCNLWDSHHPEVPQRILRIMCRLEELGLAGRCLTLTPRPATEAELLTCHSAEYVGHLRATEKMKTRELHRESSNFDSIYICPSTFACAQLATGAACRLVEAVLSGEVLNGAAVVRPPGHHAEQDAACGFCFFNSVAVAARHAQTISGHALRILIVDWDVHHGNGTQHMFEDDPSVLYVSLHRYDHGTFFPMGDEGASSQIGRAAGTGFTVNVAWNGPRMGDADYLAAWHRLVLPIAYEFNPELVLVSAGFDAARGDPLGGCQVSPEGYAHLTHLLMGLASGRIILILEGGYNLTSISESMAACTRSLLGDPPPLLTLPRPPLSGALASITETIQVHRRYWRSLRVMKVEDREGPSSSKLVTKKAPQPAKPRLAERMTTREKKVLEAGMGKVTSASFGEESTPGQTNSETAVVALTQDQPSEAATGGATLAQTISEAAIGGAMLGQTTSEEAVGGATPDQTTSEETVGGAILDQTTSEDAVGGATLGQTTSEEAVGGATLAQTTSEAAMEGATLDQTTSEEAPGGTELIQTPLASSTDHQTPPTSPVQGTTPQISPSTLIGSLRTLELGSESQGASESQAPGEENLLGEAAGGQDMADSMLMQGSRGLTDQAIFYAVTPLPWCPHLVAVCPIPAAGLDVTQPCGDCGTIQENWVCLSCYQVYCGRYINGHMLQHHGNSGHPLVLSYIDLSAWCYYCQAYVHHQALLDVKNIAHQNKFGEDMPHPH
Description: Inhibition of recombinant full-length human N-terminal GST-tagged HDAC6 expressed in baculovirus infected Sf9 insect cells using fluorescent-labelled Arg-His-Lys-Lys(Ac) as substrate measured after 2 hrs by fluorescence assay.

Regarding `Cc1c(CN)c2ccccc2n1-c1ccc(C(=O)NO)cc1`, the IC50 came to 1.5 nM.
